For data set [1], the system named is ABC-overexpressing cancer cells. Set-up: method as in PMID 27326336. The following applies: earlier finding; citation mark lost in the text, probably ref 20; cited from earlier work.
For data set [2], the system named is ABCC1-overexpressing SW620M cells. Put plainly: MDR reversal assay (ERP), SW620M. The following applies: Homo sapiens; SW620M, drug alone, n = 3. In kind it is cell-based, human. The text has this: (§1) We investigated the potency of 4a–e to inhibit ABC transporters (ABCB1, ABCC1, and ABCG2) by determining their enhancement of reversal potency (ERP) values. ERP represents fold changes in the IC50 values of anticancer drugs in multidrug-resistant cancer sublines (ABCB1-overexpressing SW620D, SW620E, and SW620V; ABCC1-overexpressing SW620M; ABCG2-overexpressing SW620C and SW620Mito) exposed to a combination of the investigated compounds and anticancer agents at equimolar concentrations, compared with values obtained with drugs alone (Tables S2 and S3 and Figure ).
(§2) Standards. Multidrug-resistant variants of SW620 cells were developed in our laboratory as described previously.10, 11 All cells were cultured under standard conditions (37°C, 5% CO2, 100% humidity) in high-glucose DMEM supplemented with GlutaMaxTM, HEPES (ThermoFisher Scientific, USA), and 10% fetal bovine serum (EURx, Poland). Cells were routinely tested for potential Mycoplasma contamination using the MycoProbe Mycoplasma Detection kit (R&D System, USA).
(§3) In total, 104 cells in 100 µL of complete medium were plated per well of a 96-well plate and left overnight to allow cells to adhere to the surface. Then, the cells were exposed to a desired concentration of tested compound(s). Stock solutions were prepared in DMSO and used immediately. The final DMSO concentration was constant and nontoxic (0.1% v/v). After 70-h incubation, neutral red was added to the final concentration of 1 mM. After another 2 h, the medium was aspirated, and cells were washed twice with PBS. Dye was released using 100 µL of a solubilizer (1% acetic acid in 50% ethanol) on an orbital shaker (10 min). Absorbance was read at 540 nm using EnVision Multilabel Plate Reader (Perkin Elmer, USA). Results were expressed as % of control. The IC50 parameters were calculated using GraphPad Prism version 10 (GraphPad Software, Boston, Massachusetts USA).
(§4) The enhancement of reversal potency (ERP) value determination
(§5) For MDR reversal assays, cytotoxic agents were co-administered with compounds 4a–4e at equimolar concentrations in a range of 10 nM to 100 µM. IC₅₀ values were determined in ABCB1-overexpressing SW620 cell line variants. The enhancement of reversal potency (ERP) was calculated using the following formula: ERP = IC₅₀(drug)MDR / IC₅₀(drug + compound)MDR. All experiments were performed in triplicate (n = 3).

In data set [3] the test system is SW620 cells. Put plainly: Neutral red uptake viability assay, SW620. In kind it is cell-based, human. The following applies: SW620, substance alone (xlsx), read-out: SW620 IC50. As for the experimental part: (§6) To evaluate this aspect, we investigated the viability of SW620 colon cancer cells and their multidrug-resistant variants (overexpressing ABCB1, ABCC1, and ABCG2) exposed to 1 and 10 μM 4a–e using a neutral red uptake assay (Table ). In general, compounds 4a–e exerted little or no cytotoxic effect on either SW620 or multidrug-resistant sublines even at 10 μM, with the remarkable exception of SW620C (cisplatin-selected variant of SW620) cells, which turned out to be relatively susceptible toward ferrocenyl 4a–c. […] This trend may reflect steric or electronic contributions to cellular uptake or interaction with intracellular targets. […] However, since E/Z isomeric data are currently available only for compound 4c, this hypothesis requires validation. To quantify this effect, IC50 values were determined (Table ). […]
(§7) The normal lung fibroblast MRC-5 and colorectal adenocarcinoma SW620 cell lines used in this experiment were purchased from American Type Culture Collection (USA) via LGC […]
as §2
as §3, with “Massachusetts USA). […]” for “Massachusetts USA).”
(§8) All experiments were performed in triplicate (n = 3).

The test system of data set [4] is SW620M cells (methotrexate-resistant). In words: Neutral red uptake viability assay, SW620M. In kind it is cell-based, human. The following applies: Homo sapiens, substance alone (xlsx), read-out: SW620M IC50. As for the experimental part: (§9) In general, compounds 4a–e exerted little or no cytotoxic effect on either SW620 or multidrug-resistant sublines even at 10 μM, with the remarkable exception of SW620C (cisplatin-selected variant of SW620) cells, which turned out to be relatively susceptible toward ferrocenyl 4a–c. […] This trend may reflect steric or electronic contributions to cellular uptake or interaction with intracellular targets. […] However, since E/Z isomeric data are currently available only for compound 4c, this hypothesis requires validation. To quantify this effect, IC50 values were determined (Table ). […]
as §7, §2
as §3, with “Massachusetts USA). […]” for “Massachusetts USA).”
as §8

Data set [5] concerns SW620 cells. In words: MDR reversal assay (coadministration with anticancer drug), SW620. In kind it is cell-based, human. The settings on record: SW620, drug alone, n = 3.
Source text: as §1, §2, §3, §4, §5

Data set [6] deals with SW620D cells (doxorubicin-resistant). In words: Neutral red uptake viability assay, SW620D. In kind it is cell-based, human. The settings on record: Homo sapiens, substance alone (xlsx), read-out: SW620D IC50. As for the experimental part: as §9, §7, §2, §3, §4, §5
Data set [7] has as its system SW620Mito cells (mitoxantrone-resistant). In words: Neutral red uptake viability assay, SW620Mito. In kind it is cell-based, human. The following applies: Homo sapiens, substance alone (xlsx), read-out: SW620Mito IC50. As for the experimental part: as §9, §7, §2
as §3, with “Massachusetts USA). […]” for “Massachusetts USA).”
as §8

In data set [8] the test system is ABCG2-overexpressing SW620Mito cells. In words: MDR reversal assay (ERP), SW620Mito. In kind it is cell-based, human. The following applies: Homo sapiens; SW620Mito, drug alone, n = 3.
Source text: as §1, §2, §3, §4, §5

Data set [9] deals with ABCB1-overexpressing SW620V cells. Put plainly: MDR reversal assay (ERP), SW620V. In kind it is cell-based, human. The settings on record: Homo sapiens; SW620V, drug alone, n = 3.
Source text: as §1, §2, §3, §4, §5

Data set [10] deals with SW620V cells (vincristine-resistant). Put plainly: Neutral red uptake viability assay, SW620V. In kind it is cell-based, human. The settings on record: Homo sapiens, substance alone (xlsx), read-out: SW620V IC50. As for the experimental part: as §9, §7, §2, §3, §4, §5
Data set [11] has as its system ABCG2-overexpressing SW620C cells. Put plainly: MDR reversal assay (ERP), SW620C. In kind it is cell-based, human. The settings on record: SW620C, drug alone, n = 3.
Source text: as §1, §2, §3, §4, §5

For data set [12], the system named is ABCB1-overexpressing SW620E cells. Put plainly: MDR reversal assay (ERP), SW620E. In kind it is cell-based, human. The settings on record: Homo sapiens; SW620E, drug alone, n = 3.
Source text: as §1, §2, §3, §4, §5

The subject of data set [13] is SW620E cells (etoposide-resistant). Put plainly: Neutral red uptake viability assay, SW620E. The settings on record: Homo sapiens, substance alone (xlsx), read-out: SW620E IC50. In kind it is cell-based, human. As for the experimental part:
as §6, §7, §2
as §3, with “Massachusetts USA). […]” for “Massachusetts USA).”
as §8

The test system of the next data set is MRC-5 fibroblasts. In words: Neutral red uptake viability assay, MRC-5. In kind it is cell-based, human. The settings on record: MRC-5, 10 μM, 72 h exposure, n = 3, ± SD. As for the experimental part:
as §7, §2
as §3, with “Massachusetts USA). […]” for “Massachusetts USA).”
as §8

As usually defined, the IC50 is the midpoint of a concentration-inhibition curve.

Turning to `CC(C)(C)c1[nH]cnc1/C=c1\[nH]c(=O)/c(=C/c2ccccc2)[nH]c1=O` [plinabulin], the “activity against ABC-overexpressing cancer cells” value in data set [1] is “inactive”.
Take `CN(Cc1cnc2nc(N)nc(N)c2n1)c1ccc(C(=O)N[C@@H](CCC(=O)O)C(=O)O)cc1` [Methotrexate, reference compound]: the half-maximal inhibitory concentration (IC50) in data set [2] is 54.1 µM; in the data set with SW620 cells [3] (Homo sapiens, SW-620), 6.28 µM; in data set [4] it was 54.1 µM; in the data set with SW620 cells [5] (Homo sapiens, SW-620), 6.28 µM.
For the compound `COc1cccc2c1C(=O)c1c(O)c3c(c(O)c1C2=O)C[C@@](O)(C(=O)CO)C[C@@H]3O[C@H]1C[C@H](N)[C@H](O)[C@H](C)O1` [Doxorubicin, reference compound], the IC50 with SW620 cells [3] (Homo sapiens, SW-620) is 0.342 µM; in the data set on SW620 cells [5] (Homo sapiens, SW-620), 0.342 µM; in [6], 4.26 µM.
For `O=C1c2c(O)ccc(O)c2C(=O)c2c(NCCNCCO)ccc(NCCNCCO)c21` [Mitoxantrone, reference compound], the IC50 in data set [7] was determined as 6.36 µM; in the data set with SW620 cells [3] (Homo sapiens, SW-620) it was 0.151 µM; in data set [8] it was 6.36 µM; in the data set on SW620 cells [5] (Homo sapiens, SW-620), 0.151 µM.
Regarding `CC[C@]1(O)C[C@H]2CN(CCc3c([nH]c4ccccc34)[C@@](C(=O)OC)(c3cc4c(cc3OC)N(C=O)[C@H]3[C@@](O)(C(=O)OC)[C@H](OC(C)=O)[C@]5(CC)C=CCN6CC[C@]43[C@@H]65)C2)C1` [Vincristine, reference compound], the IC50 came out at 24.3 µM in data set [9]; 0.125 µM in the data set with SW620 cells [3] (Homo sapiens, SW-620); 0.125 µM in the data set on SW620 cells [5] (Homo sapiens, SW-620); 24.3 µM in [10].
On to `N.N.[Cl][Pt][Cl]` [Cisplatin, reference compound], for which the IC50 in data set [11] was determined as 27.9 µM; in the data set on SW620 cells [3], 4.34 µM; in the data set with SW620 cells [5], 4.34 µM.
With `COc1cc([C@@H]2c3cc4c(cc3[C@@H](O[C@@H]3O[C@@H]5CO[C@@H](C)O[C@H]5[C@H](O)[C@H]3O)[C@H]3COC(=O)[C@H]23)OCO4)cc(OC)c1O` [Etoposide, reference compound], the IC50 in the data set on SW620 cells [3] (Homo sapiens, SW-620) was 2.6 µM; in data set [12], 16 µM; with SW620 cells [5] (Homo sapiens, SW-620), 2.6 µM; in [13], 16 µM.
With `COc1ccc2c(C[C@@H]3NC(=O)[C@@H]4CCCN4C3=O)c(CC=C(C)C)[nH]c2c1` [TrpA, tryprostatin A, reference compound], in the data set on MRC-5 fibroblasts, the survival rate stood at 97 ± 11%.

Source of the values: paper PMC12257394, “Design, Synthesis, and Biological Evaluation of Ferrocenyl–Cyclo-(Gly‑L‑Pro) Hybrids Sensitizing Multidrug-Resistant Cancer Cells to Anticancer Agents” (ACS Medicinal Chemistry Letters, 2025).
